From patent US11351140B2, “Resolvin mimetic antibodies and uses thereof” (J. Craig Venter Institute, Inc., priority 2017, dated 2022) come the findings set out here.

Assay [1] addresses T1, ERV-1 receptor (CHO-ERV-1 positive cells) (Homo sapiens, UniProt Q99788).
T1 construct: host or cells: CHO-K1/CMKLR1/Ga15 (CHO ERV1+)
T1 sequence (Q99788 1-373): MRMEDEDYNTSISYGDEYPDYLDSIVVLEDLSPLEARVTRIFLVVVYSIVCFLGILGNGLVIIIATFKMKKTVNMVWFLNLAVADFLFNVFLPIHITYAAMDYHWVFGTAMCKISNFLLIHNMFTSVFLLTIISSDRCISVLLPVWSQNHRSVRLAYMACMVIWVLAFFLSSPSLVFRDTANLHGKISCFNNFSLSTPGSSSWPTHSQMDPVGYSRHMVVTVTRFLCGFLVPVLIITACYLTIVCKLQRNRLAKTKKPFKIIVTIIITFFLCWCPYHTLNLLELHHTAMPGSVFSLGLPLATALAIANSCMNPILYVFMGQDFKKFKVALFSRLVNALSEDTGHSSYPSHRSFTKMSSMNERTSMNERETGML
The experiment in a line: Intracellular calcium signaling (Calcium5 FLIPR) in CHO ERV1+ cells. The class given is cell-based. To be noted: 1, 10, 100 nM. (In general: Calcium assays in cells follow changes in intracellular calcium, usually with a dye or a luminescent sensor.)
Experimental: To investigate calcium mobilization, cells were transferred to a 96-well plate at density of 60,000 cells per well in 80 μl of growth medium 18 hours prior to the day of experiment and maintained at 37° C./5% CO2.
After aspiration of the media, cells were labeled with the fluorescent probe, Calcium5 FLIPR (Medical Devices). After agonist treatment, detection of changes in fluorescence were detected by microplate reader and expressed as change in relative fluorescence units (ΔRFU).
To investigate calcium mobilization, CHO ERV1+ cells were transferred to a 96-well plate at density of 60,000 cells per well in 80 μl of growth medium 18 hours prior to the day of experiment and maintained at 37° C./5% CO2. After aspiration of the media, cells were labeled with the fluorescent probe, Calcium5 FLIPR (Medical Devices). After agonist treatment, detection of changes in fluorescence were detected by microplate reader and expressed as change in relative fluorescence units (ARFU).
To determine whether the immune complexes between ERV-1 receptor and various anti-ERV-1 antibodies permit the bound immune complex to interact with ERV-1 cellular receptor functions, an in vitro assay was devised. To that end, calcium intracellular signaling was measured upon agonist ligand binding. […] After 20 seconds, calcium mobilization was measured through fluorescence (FIG. 15). […]

The next assay has as its system ERV1tg mice. As to the kind of experiment: Zymosan-induced peritonitis, peritoneal lavage cells by flow cytometry. To be noted: injected together with zymosan; 12 hours of inflammation. The class given is in vivo. As for the experimental part: Cells were extracted from peritoneal exudates collected after 12 hours of intraperitoneal injection of zymosan-A (1 mg/ml in PBS). Isolated cells were incubated with anti-Fc receptor (BD) blocking antibody (5 μg/ml×106 cells, 15 min) and then labeled with anti-human ERV1 alexafluor 488-conjugated antibody (10 μg/ml×106 cells, 1 hour at RT) or anti-IgG alexafluor 488 (isotype control, R&D Systems). Expression of ERV1 on neutrophils was evaluated by immunofluorescence and quantified by flow cytometry. ERV-1, […] positive monocytes were stained with PE-conjugated anti-mouse Arg-1 and FITC-conjugated anti-mouse EGR-(10 μg/ml×106 cells, 1 hour at RT) (BD Biosciences).
Peritonitis was initiated by zymosan particle injections […] to ERV1tg mice peritoneal tissues. It had been previously established that Resolvin-E1 could affect inflammation-related responses in an ERV-1 dependent manner in vivo in cells derived from diabetic subjects (Freire, M. et al., J. Immunol. 198(2):718-728 (2017)). To further understand the biological response induced by resolvimabs, purified clones were injected together with the zymosan stimuli (FIGS. 9A-D). […] We have looked if these compound would influence the phenotype of neutrophils and monocytes after 12 hours of inflammation in vivo.
A general note: Flow cytometry measures light scatter and fluorescence of single cells or particles in a stream.

Take `CC[C@@H](O)/C=C/C=C\C[C@@H](O)/C=C/C=C/C=C\[C@@H](O)CCCC(=O)O` [resolvinE-1, resolvin E1]: in assay [1], the “agonist functions (calcium intracellular signaling)” value is on record as “found”.

B1: C4: resolvimab, anti-ERV-1 monoclonal antibody; VH SEQ ID NO: 14, VK SEQ ID NO: 16 (antibody, V domains shown)
VH: EVKLEESGAELVMPGASVKLSCKASGYTFTSYWMHWVKQRPGQGLEWVAEIDPSDSYTNYNQKFKGKATLTVDKSSSTAYMQLSSLTSEDSAVYYCARDGDILTTVVAKGFVYWGQGTLV
VL: LSLPVSLGDQASISCRSSQTIVHSNGNTYLEWYLQKPGQSPKLLIYKVSNRFSGVPDRFSGSGSGTDFTLKISRVEAEDLGVYYCFQGSHVPWTFGGGTKLEIK
modifications: Immunoglobulin VH Region; Immunoglobulin VL(K) region
With B1, in the assay on ERV1tg mice, the “inflammatory infiltrate (flow cytometry quantification)” value was “decrease”.
